# According to the supplement of paper PMC10627819:
# How the values were obtained:
# Assay in all cases: Bliss interaction score (quartile over a dose matrix) (fitness difference); higher = more antagonism (negative = synergy)
# S. aureus Newman = test system: S. aureus Newman
# Summary of the method: (§1)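 Combination data were used to infer fitness under each single drug. Fitness is the OD595 at entry into stationary phase divided by the robust mean of the plate's no-drug wells, with a cap of 1. The Bliss score is the observed minus the expected product fitness, summarised by quartiles over technical, biological and donor/recipient replicates.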
# S. pneumoniae D39V = test system: S. pneumoniae D39V
# Summary of the method: as §1
# B. subtilis 168 = test system: B. subtilis 168
# Summary of the method: as §1
# S. aureus DSM 20231 = test system: S. aureus DSM 20231
# Summary of the method: as §1
# 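Further: first quartile when negative (synergy) and third quartile when positive (antagonism).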
Compound,Bliss interaction score (S. aureus Newman),Bliss interaction score (S. pneumoniae D39V),Bliss interaction score (B. subtilis 168),Bliss interaction score (S. aureus DSM 20231),Bliss interaction score (S. aureus Newman; main component drawn),Bliss interaction score (S. pneumoniae D39V; main component drawn),Bliss interaction score (B. subtilis 168; main component drawn),Bliss interaction score (S. aureus DSM 20231; main component drawn)
CC(=O)O[C@H]1C[C@@]2(C)[C@@H](C[C@@H](O)[C@H]3[C@@]4(C)CC[C@@H](O)[C@@H](C)[C@@H]4CC[C@@]32C)/C1=C(\CCC=C(C)C)C(=O)O [Fusidic acid] + C[C@@H](O)[C@H]1C(=O)N2C(C(=O)O)=C(SCCNC=N)C[C@H]12 [Imipenem],0.0214,0.0477,0.138,0.0208,,,,
CC(=O)O[C@H]1C[C@@]2(C)[C@@H](C[C@@H](O)[C@H]3[C@@]4(C)CC[C@@H](O)[C@@H](C)[C@@H]4CC[C@@]32C)/C1=C(\CCC=C(C)C)C(=O)O [Fusidic acid] + C[C@H]1COc2c(N3CCN(C)CC3)c(F)cc3c(=O)c(C(=O)O)cn1c23 [Levofloxacin],0.0554,0.119,0.034,0.0375,,,,
CC(=O)O[C@H]1C[C@@]2(C)[C@@H](C[C@@H](O)[C@H]3[C@@]4(C)CC[C@@H](O)[C@@H](C)[C@@H]4CC[C@@]32C)/C1=C(\CCC=C(C)C)C(=O)O [Fusidic acid] + C[n+]1ccc(-c2cc[n+](C)cc2)cc1 [Paraquat],0.0284,0.0439,0.0317,0.0328,,,,
CC(=O)O[C@H]1C[C@@]2(C)[C@@H](C[C@@H](O)[C@H]3[C@@]4(C)CC[C@@H](O)[C@@H](C)[C@@H]4CC[C@@]32C)/C1=C(\CCC=C(C)C)C(=O)O [Fusidic acid] + Cc1cc(NS(=O)(=O)c2ccc(N)cc2)no1 [Sulfamethoxazol],-0.026,0.0975,0.0933,-0.0234,,,,
CC(=O)O[C@H]1C[C@@]2(C)[C@@H](C[C@@H](O)[C@H]3[C@@]4(C)CC[C@@H](O)[C@@H](C)[C@@H]4CC[C@@]32C)/C1=C(\CCC=C(C)C)C(=O)O [Fusidic acid] + Cc1ncc([N+](=O)[O-])n1CCO [Metronidazole],-0.0202,0.133,0.0703,-0.0408,,,,
CC(=O)O[C@H]1C[C@@]2(C)[C@@H](C[C@@H](O)[C@H]3[C@@]4(C)CC[C@@H](O)[C@@H](C)[C@@H]4CC[C@@]32C)/C1=C(\CCC=C(C)C)C(=O)O [Fusidic acid] + Cc1onc(-c2ccccc2)c1C(=O)N[C@@H]1C(=O)N2[C@@H]1SC(C)(C)[C@@H]2C(=O)O [Oxacillin],0.0784,0.152,0.0607,0.044,,,,
CC(=O)O[C@H]1C[C@@]2(C)[C@@H](C[C@@H](O)[C@H]3[C@@]4(C)CC[C@@H](O)[C@@H](C)[C@@H]4CC[C@@]32C)/C1=C(\CCC=C(C)C)C(=O)O [Fusidic acid] + Clc1ccc(COC(Cn2ccnc2)c2ccc(Cl)cc2Cl)c(Cl)c1 [Miconazole],-0.0399,-0.117,-0.0605,0.0483,,,,
CC(=O)O[C@H]1C[C@@]2(C)[C@@H](C[C@@H](O)[C@H]3[C@@]4(C)CC[C@@H](O)[C@@H](C)[C@@H]4CC[C@@]32C)/C1=C(\CCC=C(C)C)C(=O)O [Fusidic acid] + Cn1nnc(-c2ccc(-c3ccc(N4C[C@H](CO)OC4=O)cc3F)cn2)n1 [Tedizolid],-0.048,-0.0933,-0.131,-0.0507,,,,
CC(=O)O[C@H]1C[C@@]2(C)[C@@H](C[C@@H](O)[C@H]3[C@@]4(C)CC[C@@H](O)[C@@H](C)[C@@H]4CC[C@@]32C)/C1=C(\CCC=C(C)C)C(=O)O [Fusidic acid] + O=C1CN(/N=C/c2ccc([N+](=O)[O-])o2)C(=O)N1 [Nitrofurantoin],-0.0292,-0.186,-0.0345,-0.0226,,,,
CC(=O)O[C@H]1C[C@@]2(C)[C@@H](C[C@@H](O)[C@H]3[C@@]4(C)CC[C@@H](O)[C@@H](C)[C@@H]4CC[C@@]32C)/C1=C(\CCC=C(C)C)C(=O)O [Fusidic acid] + Oc1cc(Cl)ccc1Oc1ccc(Cl)cc1Cl [Triclosan],0.0305,0.124,0.0422,-0.0259,,,,
C[C@@H](O)[C@H]1C(=O)N2C(C(=O)O)=C(SCCNC=N)C[C@H]12 [Imipenem] + CC1(C)S[C@@H]2[C@H](NC(=O)Cc3ccccc3)C(=O)N2[C@H]1C(=O)O [PenicillinG],-0.198,-0.0999,0.0587,-0.0614,,,,
C[C@@H](O)[C@H]1C(=O)N2C(C(=O)O)=C(SCCNC=N)C[C@H]12 [Imipenem] + CCCCCCCCCC(=O)N[C@@H]1[C@H]([C@@H]([C@H](O[C@H]1OC2=C3C=C4C=C2OC5=C(C=C(C=C5)[C@H]([C@H]6C(=O)N[C@@H](C7=C(C(=CC(=C7)O)OC8[C@H]([C@H]([C@@H]([C@H](O8)CO)O)O)O)C9=C(C=CC(=C9)[C@H](C(=O)N6)NC(=O)[C@@H]4NC(=O)[C@@H]1C2=CC(=CC(=C2)OC2=C(C=CC(=C2)[C@H](C(=O)N[C@H](CC2=CC(=C(O3)C=C2)Cl)C(=O)N1)N)O)O)O)C(=O)O)O[C@H]1[C@@H]([C@H]([C@@H]([C@H](O1)CO)O)O)NC(=O)C)Cl)CO)O)O [Teicoplanin],,,,,0.0599,-0.102,-0.0771,0.0578
C[C@@H](O)[C@H]1C(=O)N2C(C(=O)O)=C(SCCNC=N)C[C@H]12 [Imipenem] + CC[C@H]1OC(=O)[C@H](C)C(=O)[C@H](C)[C@@H](O[C@@H]2O[C@H](C)C[C@H](N(C)C)[C@H]2O)[C@](C)(OC)C[C@@H](C)C(=O)[C@H](C)[C@H]2N(CCCCn3cnc(-c4cccnc4)c3)C(=O)O[C@]12C [Telithromycin],-0.0123,0.0906,0.0561,-0.0311,,,,
C[C@@H](O)[C@H]1C(=O)N2C(C(=O)O)=C(SCCNC=N)C[C@H]12 [Imipenem] + CN[C@H](CC(C)C)C(=O)N[C@H]1C(=O)N[C@@H](CC(N)=O)C(=O)N[C@H]2C(=O)N[C@H]3C(=O)N[C@H](C(=O)N[C@H](C(=O)O)c4cc(O)cc(O)c4-c4cc3ccc4O)[C@H](O[C@H]3C[C@](C)(N)[C@@H](O)[C@H](C)O3)c3ccc(c(Cl)c3)Oc3cc2cc(c3O[C@@H]2O[C@H](CO)[C@@H](O)[C@H](O)[C@H]2O[C@H]2C[C@](C)(NCc3ccc(-c4ccc(Cl)cc4)cc3)[C@@H](O)[C@H](C)O2)Oc2ccc(cc2Cl)[C@H]1O [Oritavancin],0.0479,-0.0529,0.0293,-0.0256,,,,
